Structures can show the parent of a compound that is named as a salt.

This note sets out measurements from patent US6346532B1, “Amide derivatives or salts thereof” (Yamanouchi Pharmaceutical Co., Ltd., priority 1997, dated 2002).

A word on the melting point: it is the temperature, or range, at which the solid turns liquid. On to `Cl.O=C(Cc1n[nH]c(S)n1)Nc1ccc(CCNC[C@H](O)c2ccccc2)cc1`, for which the melting point lay in the range of 210 to 213 °C. The value for `Cl.O=C(Cc1ccccn1)Nc1ccc(CCNCC(O)c2ccccc2F)cc1` (stereo not drawn) was 194 to 196 °C; that for `Cl.O=C(Cc1ccccn1)Nc1ccc(CCNCC(O)c2cccc(F)c2)cc1` (stereo not drawn) was 214 to 215 °C. `Cl.O=C(Cc1ccccn1)Nc1ccc(CCNCC(O)c2ccc(F)cc2)cc1` (stereo not drawn) showed a melting point of 223 to 225 °C. For `Cl.O=C(Cc1ccc2ccccc2n1)Nc1ccc(CCNC[C@H](O)c2ccccc2)cc1` the value was 234 to 235 °C; for `Cl.O=C(Cc1ccccn1)Nc1ccc(CCNC[C@H](O)c2cccc(Cl)c2)cc1`, 221 to 222 °C. In the case of `Cl.Cl.Nc1nc(C(=O)C(=O)Nc2ccc(CCNC[C@H](O)c3ccccc3)cc2)cs1`, the melting point is 205 to 210 °C (dec.). The compound `Cl.O=C(Cc1ccccn1)Nc1ccc(OCCNC[C@H](O)c2ccccc2)cc1` returned a melting point of 225 to 226 °C. For `Cl.Cl.O=C(Nc1ccc(CCNC[C@H](O)c2ccccc2)cc1)Nc1ccccn1` the value was 132 to 133 °C. In the case of `Cl.Cl.Nc1nc(CC(=O)Nc2ccc(CCNC[C@H](O)c3ccccc3)cc2)ns1`, the melting point was 244 to 246 °C. The value for `CCOC(=O)Nc1nc(CC(=O)Nc2ccc(CCNC[C@H](O)c3ccccc3)cc2)ns1.Cl` was 205 to 208 °C; that for `Cl.O=C(Cc1cccc(Cl)n1)Nc1ccc(CCNC[C@H](O)c2ccccc2)cc1` was 248 to 251 °C. Consider `Cl.Cl.O=C(Cc1cn(Cc2ccccc2)cn1)Nc1ccc(CCNC[C@H](O)c2ccccc2)cc1`, for which the melting point was 139 to 141 °C.

`Cl.Cl.O=C(Cc1cn(Cc2ccccc2Cl)cn1)Nc1ccc(CCNC[C@H](O)c2ccccc2)cc1` gave a melting point of 140 to 143 °C. The compound `Cl.Cl.O=C(Nc1ccc(CCNC[C@H](O)c2ccccc2)cc1)c1cccnc1` came in with a melting point of 263 to 265 °C. With `Cl.Cl.O=C(Cc1cn(Cc2cccc(Cl)c2)cn1)Nc1ccc(CCNC[C@H](O)c2ccccc2)cc1`, the melting point lay in the range of 140 to 143 °C.

Compound `Cl.Cl.O=C(Cc1nccn1Cc1ccc(F)cc1)Nc1ccc(CCNC[C@H](O)c2ccccc2)cc1` displayed a melting point of 230 to 235 °C.

In the case of `Cl.Cl.O=C(Cc1nccn1Cc1ccc(Br)cc1)Nc1ccc(CCNC[C@H](O)c2ccccc2)cc1`, the melting point lay in the range of 221 to 223 °C. For `Cl.Cl.O=C(Cc1nccn1Cc1ccc(I)cc1)Nc1ccc(CCNC[C@H](O)c2ccccc2)cc1` the value was 222 to 225 °C; for `Cl.Cl.O=C(Cc1nccn1Cc1ccc(C(F)(F)F)cc1)Nc1ccc(CCNC[C@H](O)c2ccccc2)cc1`, 197 to 203 °C; for `Cl.Cl.O=C(Cc1nccn1-c1ccc2ccccc2c1)Nc1ccc(CCNC[C@H](O)c2ccccc2)cc1`, 208 to 214 °C. Turning to `Cc1cnc(CC(=O)Nc2ccc(CCNC[C@H](O)c3ccccc3)cc2)n1Cc1ccc(F)cc1.Cl.Cl`, the melting point was in the range of 219 to 223 °C. The value for `Cc1cn(Cc2ccc(F)cc2)c(CC(=O)Nc2ccc(CCNC[C@H](O)c3ccccc3)cc2)n1.Cl.Cl` was 204 to 207 °C; that for `Cl.O=C(Cc1nnnn1Cc1ccc(F)cc1)Nc1ccc(CCNC[C@H](O)c2ccccc2)cc1` was 225 to 228 °C; that for `Cl.O=C(CC1=NNN(Cc2ccc(Cl)c(Cl)c2)N1)Nc1ccc(CCNC[C@H](O)c2ccccc2)cc1` was 232 to 235 °C. The value for `Cl.O=C(CC1=NNN(Cc2ccc(F)cc2)N1)Nc1ccc(CCNC[C@H](O)c2ccccc2)cc1` was 233 to 235 °C.

In turn, `Cl.Cl.O=C(Cc1nc[nH]n1)Nc1ccc(CCNC[C@H](O)c2ccccc2)cc1` showed a melting point of 221 to 224 °C. For `Cl.Cl.O=C(Cc1n[nH]c(SCc2ccccc2)n1)Nc1ccc(CCNC[C@H](O)c2ccccc2)cc1`, the melting point was in the range of 222 to 224 °C.

`CC(=O)Nc1nc(CC(=O)Nc2ccc(CCNC[C@H](O)c3ccccc3)cc2)cs1.Cl` returned a melting point of 242 to 245 °C. `CS(=O)(=O)Nc1nc(CC(=O)Nc2ccc(CCNC[C@H](O)c3ccccc3)cc2)cs1.Cl` yielded a melting point of 252 to 256 °C. For `Cl.Cl.N=C(N)Nc1nc(CC(=O)Nc2ccc(CCNC[C@H](O)c3ccccc3)cc2)cs1` the value was > 230 °C (dec.).

Compound `Cl.O=C(Cc1nccn1Cc1ccc([N+](=O)[O-])cc1)Nc1ccc(CCNC[C@H](O)c2ccccc2)cc1` showed a melting point of 237 to 243 °C. The value for `Cl.Cl.O=C(Cc1nc2ccccc2s1)Nc1ccc(CCNC[C@H](O)c2ccccc2)cc1` was 228 to 233 °C (dec.). Take `Cl.Cl.O=C(Cc1csc2nccn12)Nc1ccc(CCNC[C@H](O)c2ccccc2)cc1`: the melting point was in the range of 161 to 162 °C. The value for `Cl.Cl.O=C(Cc1nccn1Cc1c(F)ccc(F)c1F)Nc1ccc(CCNC[C@H](O)c2ccccc2)cc1` was 213 to 217 °C; that for `Cl.Cl.O=C(Cc1nccn1Cc1cc(F)c(F)c(F)c1)Nc1ccc(CCNC[C@H](O)c2ccccc2)cc1` was 209 to 213 °C. For `Cl.Cl.O=C(Cc1nccn1Cc1c(F)c(F)c(F)c(F)c1F)Nc1ccc(CCNC[C@H](O)c2ccccc2)cc1` the value was 190 to 193 °C; for `Cl.Cl.O=C(Cc1nccn1Cc1cccc(I)c1)Nc1ccc(CCNC[C@H](O)c2ccccc2)cc1`, 233 to 234 °C. `Cl.Cl.Cl.O=C(Cc1nccn1-c1ccc2ccccc2n1)Nc1ccc(CCNC[C@H](O)c2ccccc2)cc1`: the melting point is 162 to 165 °C. Regarding `Cl.Cl.O=C(Cc1ncc[nH]1)Nc1ccc(CCNC[C@H](O)c2ccccc2)cc1`, the melting point was in the range of 203 to 207 °C. `Cl.O=C(Cn1cccn1)Nc1ccc(CCNC[C@H](O)c2ccccc2)cc1` came in with a melting point of 229 to 232 °C. The value for `Cl.Cl.O=C(Cn1cncn1)Nc1ccc(CCNC[C@H](O)c2ccccc2)cc1` was 237 to 240 °C; that for `Cl.O=C(Cc1cccnc1)Nc1ccc(CCNC[C@H](O)c2ccccc2)cc1` was 236 to 238 °C.

Compound `Cl.O=C(Cc1ccncc1)Nc1ccc(CCNC[C@H](O)c2ccccc2)cc1` showed a melting point of 195 to 198 °C. `Cl.O=C(CCc1ccccn1)Nc1ccc(CCNC[C@H](O)c2ccccc2)cc1` had a melting point of 202 to 204 °C. For `Cl.O=C(Cc1nnn[nH]1)Nc1ccc(CCNC[C@H](O)c2ccccc2)cc1` the value was 259 to 261 °C; for `Cc1cccnc1CC(=O)Nc1ccc(CCNC[C@H](O)c2ccccc2)cc1.Cl`, 216 to 217 °C; for `O=C(Nc1ccc(CCNCC(O)c2ccccc2)cc1)c1ccccn1` (stereo not drawn) (as salt: hydrochloride), 223 to 225 °C. `O=C(Cc1nnnn1Cc1ccc(Cl)c(Cl)c1)Nc1ccc(CCNCC(O)c2ccccc2)cc1` (stereo not drawn) (as salt: hydrochloride) returned a melting point of 240 to 242 °C.

`Nc1cccc(CC(=O)Nc2ccc(CCNCC(O)c3ccccc3)cc2)n1` (stereo not drawn) (as salt: hydrochloride) came in with a melting point of 150 to 152 °C. The value for `O=C(Cc1ccccn1)Nc1ccc(CCNCC(O)c2ccccc2)cc1` (stereo not drawn) (as salt: hydrochloride) was 223 to 224 °C; that for `O=C(Cc1cnccn1)Nc1ccc(CCNCC(O)c2ccccc2)cc1` (stereo not drawn) (as salt: hydrochloride) was 236 to 238 °C; that for `O=C(Cc1nccn1Cc1ccc(Cl)cc1)Nc1ccc(CCNC[C@H](O)c2ccccc2)cc1` (as salt: hydrochloride) [Example 23, (R)-2-[1-(4-Chlorobenzyl)-1H-imidazol-2-yl]-4′-[2-[(2-hydroxy-2-phenylethyl)amino]ethyl]acetanilide dihydrochloride] was 203 to 209 °C. The value for `O=C(Cc1ncccn1)Nc1ccc(CCNC[C@H](O)c2ccccc2)cc1` (as salt: hydrochloride) [Example 104, (R)-4′-[2-[(2-hydroxy-2-phenylethyl)amino]ethyl]-2-(2-pyrimidinyl]acetanilide hydrochloride] was 208 to 210 °C; that for `Cl.O=C(Cc1cccc(OCc2ccccc2)n1)Nc1ccc(CCNC[C@H](O)c2ccccc2)cc1` [16] was 237 to 238 °C; that for `Cl.O=C(Cc1cccc(OCc2ccccc2)n1)Nc1ccc(CCNC[C@H](O)c2ccccc2)cc1` [60] was 214 to 216 °C.

`O=C(Cc1nc2ccccc2[nH]1)Nc1ccc(CCNC[C@H](O)c2ccccc2)cc1` [Example 91, (R)-2-(1H-benzimidazol-2-yl)-4′-[2-[(2-hydroxy-2-phenylethyl)amino]-ethyl]acetanilide] showed a melting point of 158 to 165 °C.
